The numbers were not newly measured in patent US20230000786A1, “TREATMENT OF SKIN DISORDERS WITH TOPICAL COMPOSITIONS COMPRISING TAPINAROF AND A PDE4 INHIBITOR” (Sol-Gel Technologies Ltd., priority 2019, published 2023), which cites them from elsewhere.

Molecules are shown by their SMILES. Read-outs that look alike come from different tables or passages of the source.

For series [1] the following is noted: psoriasis treatment, single drug; placebo 20.2%.
Series [2] deals with proinflammatory mediators, including interleukin-6 and interleukin-17A. As to conditions: mouse models.
The test system is the same in series [3]. As to conditions: in vitro human skin studies.
The conditions of series [4]: 1% tapinarof arm compared with 0.5% arm or vehicle.
The conditions of series [5]: across all groups treated.
Where [6] appears, read: interleukin-6 and interleukin-17A.

For the compound `C=C1/C(=C\C=C2/CCC[C@]3(C)[C@@H]([C@H](C)/C=C/[C@@H](O)C4CC4)CC[C@@H]23)C[C@@H](O)C[C@@H]1O` [calcipotriene], the adverse effects in series [1] is 19.5%.
For the compound `CC(C)c1c(O)cc(/C=C/c2ccccc2)cc1O` [Tapinarof, 3,5-dihydroxy-4-isopropyl-trans-stilbene], the skin barrier function entry in series [2] and in series [3] was “enhance skin barrier function” in each case. In addition, the “inhibition of specific proinflammatory mediators” value in series [2] (setting [6]) and in series [3] (setting [6]) was “inhibit specific proinflammatory mediators” in each case. The efficacy entry in series [4] is reported as “higher efficacy”. Moreover, in series [4], the onset of action result was “quicker onset of action”. Besides, in series [1], the adverse effects is 44.5%. The folliculitis side-effect in series [5] is listed as 9%. In addition, the contact dermatitis side-effect in series [5] (listed among most common side-effects (>5%)) was more than 5%.
